Data taken from publication PMC11062507.

Columns and labels:
[1] = tested on: CArah1-1 (DNA, aptamer, circular (5' and 3' ends ligated)) ATCCGATCGAGAGGATCCGGAAACATGCGAATTAATGAGGCCCCAAGATAGCTAAGAGAT; experiment: MMC-GO-based binding assay, SYBR Gold fluorescence; conditions: 1x binding buffer (composition not stated); specificity test, concentration not given
Ara h1 (peanut allergen) [2] = molecular target: T1, Ara h1 (peanut allergen) (peanut, UniProt P43238 85-626); experiment: MMC-GO-based fluorescence binding assay; Kd only in figure; 1x binding buffer (composition not in material); aptamer heated 95 C 5 min, ice 15 min, incubated 60 min with target, then MMC-GO 20 min; MST at 25 C; conditions: protein: native; tags: RED-NHS dye label in MST; label: SYBR Gold staining; circular ssDNA
T1 sequence: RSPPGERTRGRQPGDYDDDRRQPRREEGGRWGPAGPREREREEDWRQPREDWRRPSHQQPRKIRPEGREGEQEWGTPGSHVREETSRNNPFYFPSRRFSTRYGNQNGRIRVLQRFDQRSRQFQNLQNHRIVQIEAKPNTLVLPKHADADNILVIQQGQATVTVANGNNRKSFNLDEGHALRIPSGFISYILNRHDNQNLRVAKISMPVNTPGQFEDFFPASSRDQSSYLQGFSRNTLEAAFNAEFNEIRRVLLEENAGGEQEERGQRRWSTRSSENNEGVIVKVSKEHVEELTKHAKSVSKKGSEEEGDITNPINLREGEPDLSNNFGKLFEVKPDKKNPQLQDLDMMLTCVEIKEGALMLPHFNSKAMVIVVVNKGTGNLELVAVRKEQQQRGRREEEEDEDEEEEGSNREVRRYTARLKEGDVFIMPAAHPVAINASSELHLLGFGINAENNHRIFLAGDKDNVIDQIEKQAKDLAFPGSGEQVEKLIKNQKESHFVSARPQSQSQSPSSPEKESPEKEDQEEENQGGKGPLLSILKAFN

Ara h1 (peanut allergen) [3] = molecular target: T1, Ara h1 (peanut allergen); experiment: MMC-GO-based fluorescence binding assay; 1x binding buffer (composition not in material); aptamer heated 95 C 5 min, ice 15 min, incubated 60 min with target, then MMC-GO 20 min; MST at 25 C; conditions: protein: native; tags: RED-NHS dye label in MST; label: SYBR Gold staining in MMC-GO assay; circular ssDNA
Ara h1 (peanut allergen) [4] = molecular target: T1, Ara h1 (peanut allergen); experiment: MST; labeled Ara h1 fixed, aptamer titrated, 25 C; 1x binding buffer (composition not in material); aptamer heated 95 C 5 min, ice 15 min, incubated 60 min with target, then MMC-GO 20 min; MST at 25 C; conditions: protein: native; tags: RED-NHS dye label in MST; label: SYBR Gold staining in MMC-GO assay; circular ssDNA

For `OC[C@H]1OC(O)[C@H](O)[C@@H](O)[C@@H]1O` (stereo partly shown), which binding [1] is on record?
The binding was “no”.

For `N[C@@H](Cc1c[nH]c2ccccc12)C(=O)O`, which binding [1] is on record?
Its binding is “no”.

`Nc1ncnc2c1ncn2[C@@H]1O[C@H](COP(=O)(O)OP(=O)(O)OP(=O)(O)O)[C@@H](O)[C@H]1O` was tested. Which binding [1] did it give?
The binding was “no”.

With `O=C1O[C@H]([C@@H](O)CO)C(O)=C1O` as the molecule, how does the binding [1] read?
Its binding is “no”.

With `N[C@@H](Cc1ccccc1)C(=O)O` as the molecule, how does the binding [1] read?
Its binding is “no”.

`Cc1cc2nc3c(=O)[nH]c(=O)nc-3n(C[C@H](O)[C@H](O)[C@H](O)CO)c2cc1C` was tested. Which binding [1] did it give?
Its binding is “no”.

B1: CArah1-3 (structured_DNA)
DNA: ATCCGATCGATTCTACGGTTTTTCGCTAACGTTCACTGCACTGTATCTGGGCTAAGAGAT
modifications: circular (5' and 3' ends ligated)
Does B1 bind (Ara h1 (peanut allergen) [2])?
Result: binds

B2: CArah1-4 (structured_DNA)
DNA: ATCCGATCGATCAACAAACTTCGTGGCTCACCCAGACATTCACTCATGCGGCTAAGAGAT
modifications: circular (5' and 3' ends ligated)
Does B2 bind (Ara h1 (peanut allergen) [2])?
Result: binds

B3: CArah1-1 (structured_DNA)
DNA: ATCCGATCGAGAGGATCCGGAAACATGCGAATTAATGAGGCCCCAAGATAGCTAAGAGAT
modifications: circular (5' and 3' ends ligated)
What does the source list for B3?
Kd (Ara h1 (peanut allergen) [3]): 981 nM; Kd (Ara h1 (peanut allergen) [4]): 201 nM
